The results in this text go back to patent publication US20090093538A1, “Method for treating cancer” (priority 2007, published 2009).

Entries after “also recorded” stand apart in the source; their conditions may differ.

Data set [1] deals with Ramos cells. The data set is described as follows: Apoptosis, Annexin V / propidium iodide FACS. The data set is classed as cell-based. The note with it: 5 mM NAC. The procedure: (§1) To confirm that the ability of NAC to block Compound 1-induced cell death was not cell-line specific, we examined the role of oxidative stress in two additional cell lines by FAC analysis. RAMOS and HSB2 cells (ATCC) were seeded in 6-well plates at 1×10^6 cells/well/4 mL and incubated at 37° C. for 4 hours. […] After incubation the cells were stained with Annexin V and propidium iodide (Vybrant Apoptosis assay kit, Cat# V13241, Invitrogen, Molecular Probes) for measuring apoptotic cells by FACS analysis.

Data set [2] has as its system Hsp70. As to the kind of experiment: Hsp70 RNA induction, quantitative PCR, Hs294T cells. Format: cell-based, human. As to conditions: Compound 1 100 nM, 6 hours. The procedure:
[…] 500 ng of RNA from each sample was used for cDNA synthesis using iScript cDNA Synthesis Kit (Biorad, Cat# 170-8891). 1 uL of cDNA mixture was used with the iQ SYBR Green Supermix (Biorad, Cat# 170-8882) to perform quantitative PCR in an iCycler machine (Biorad) using standard protocols. QPCR for each sample/time point was performed in duplicate. The following primers for inducible human Hsp70 and gapdh were used:
Ct values were obtained from the iCycler program and used in an equation (2^−ΔΔCT) for determining the amount of target relative to gapdh expression. This compares the relative expression of Hsp70 to the corresponding levels of gapdh in each sample. Duplicate wells were averaged and graphed with their corresponding standard deviation.
Activation of HSF-1 by oxidative stress has been reported in the literature to require p38 kinase signaling in some cell lines.

For data set [3], the system named is HSB2 cells. The data set is described as follows: Apoptosis, Annexin V / propidium iodide FACS. The data set is classed as cell-based. The note with it: for relative levels of apoptotic cells: agent alone, without Compound 1. As for the experimental part:
as §1
The cells were harvested and stained with Annexin V and propidium iodide for measuring apoptotic cells by FACS analysis.

In data set [4] the test system is MDA-MB-435 cells. The data set is described as follows: Cell viability (Cell Counting Kit-8). The note with it: […] NAC, 500 nM Compound 1, 72 hours. The data set is classed as cell-based, human. The procedure: The cells were further cultured at 37° C. for 72 hours and cell viability was measured with Cell Counting Kit-8 (Dojindo Laboratories, Cat# CK04).
A general note: Tetrazolium assays rely on reduction of a dye to a coloured formazan, in cell work by metabolically active cells.

Data set [5] concerns Ramos cells. The data set is described as follows: ROS generation, carboxy-H2DCFDA probe, flow cytometry. Format: cell-based. As for the experimental part: In these experiments, we monitored the production of ROS using the cell permeable Carboxy-H2DCFDA probe. When this probe is oxidized by ROS, it emits a green fluorescence that can be detected using flow cytometry or fluorescent microscopy. […] 25 μM carboxy-H2DCFDA (Invitrogen. C400) working solution was added to cover the cells, and the cells were incubate for 30 minutes at 37° C., protected from light. The cells were gently washed three times in warm HBSS/Ca/Mg. ROS levels, as determined by fluorescence intensity, were determined by flow cytometry (excitation at 495 nm, emission at 529 nm).
(§2) Tiron is a direct scavenger of ROS and is a potent inhibitor of oxidative stress.
Ramos cells were treated with elesclomol (500 nM) for the indicated times then washed gently once with warm HBSS/Ca/Mg (Invitrogen Carlsbad, Calif. Cat# 14025). 25 μM carboxy-H2DCFDA (Invitrogen Cat #C400) working solution was added to cover the cells and they were incubated for 30 minutes at 37° C., protected from light. The cells were gently washed three times in warm HBSS/Ca/Mg. ROS levels (fluorescence intensity) were determined by flow cytometry (excitation at 495 nm, emission at 529 nm) using a Becton Dickinson FACSCalibur equipped with CellQuest Pro software. Data is plotted as percent of elesclomol-treated cells with DCFDA fluorescence relative to DMSO (control) treated cells (see FIG. 49).
On the technique in general: Flow cytometry measures light scatter and fluorescence of single cells or particles in a stream.

Data set [6] has as its system Hs294T (or MDA-MB-435) cells. As to the kind of experiment: Affymetrix transcriptional profiling. Format: cell-based, human. The note with it: Hs294T cells; NAC 5 mM 30 minutes prior to Compound 1 100 nM; 6 hours. As for the experimental part:
RNA was isolated from the cells 6 hours after treatment using the RNeasy kit according to the manufacturers instructions (Qiagen Cat. # 71404) and RNA quality was confirmed by spectrophotometric examination. cDNA was synthesized using the One-Cycle cDNA Synthesis Kit (Affymetrix Cat. # 900431) according to the manufacturers instructions. cDNA was labeled using the GeneChip IVT Labeling Kit (Affymetrix Cat. #900449) and analyzed in duplicate on the Affymetrix Human Genome U133Plus 2.0 gene chip array according to standard Affymetrix protocols. Data sheets from the Affymetrix Gene Chip Scanner 3000 were imported into Microsoft Excel and filtered by the following criteria: greater than or equal to 1.5 fold increase, greater than or equal to 0.4SE between replicates; and 50 (low stringency) or 500 (high stringency) for the lowest signal.
NAC is the rate-limiting amino acid for the production of the antioxidant glutathione. Addition of NAC to cells increases the levels of endogenous glutathione which in turn blocks oxidative stress and ROS generation. […] RNA was isolated from the cells 6 hours after treatment and Affymetrix analysis was performed as above.

Data set [7] relates to Stage 1V metastatic melanoma.
Protocol: A phase II clinical trial was conducted in patients that had Stage 1V metastatic melanoma patients.
Patients were treated until progression of the disease. […] The tumor assessments were performed at baseline, Cycle 2, and every other Cycle thereafter.
For data set [8] the following is noted: in vivo.
For data set [9], the system named is MAPKAPK-2. As to the kind of experiment: MAPKAPK-2 phosphorylation, Western blot, CEM and CV-1 cells. Format: cell-based. The note with it: 20 μM SB203580, 0.1 or 0.5 μM Compound 1. As for the experimental part: (§3) After treatment the cells were lysized and used for Western blot analysis.
Samples were run on a SDS-PAGE gel and proteins were transferred onto a nitrocellulose membrane by a semi-dry transfer. Nitrocellulose was blocked with 5% skim milk in TBS with 0.5% Tween at room temperature for 1 hour and then probed with anti-p-MAPKAPK-2 (Thr334) (#3041, Cell Signaling) antibody. Tubulin was used as a normalization control and was probed with Anti-Tubulin (T9026, Sigma) antibody.
On the technique in general: In western blotting, separated proteins are transferred to a membrane and probed.

The test system of data set [10] is HSB2 cells. As to the kind of experiment: Apoptosis, Annexin V / propidium iodide FACS. The data set is classed as cell-based. The note with it: p38 inhibitor 20 μM plus Compound 1 0.2 μM.
Data set [11] relates to MSK1. As to the kind of experiment: MSK1 phosphorylation, Western blot, MDA-MB-435 cells. Format: cell-based, human. As to conditions: 20 μM SB203580, 0.1 or 0.5 μM Compound 1. The procedure: as §3
Samples were run on a SDS-PAGE gel and proteins were transferred onto a nitrocellulose membrane by a semi-dry transfer. Nitrocellulose was blocked with 5% skim milk in TBS with 0.5% Tween at room temperature for 1 hour and then probed with anti-p-MSK1 (Thr581) (#9595, Cell Signaling) antibody. The nitrocellulose was then probed with secondary antibodies, HRP-conjugated goat anti-rabbit IgG and HRP-conjugated horse anti-mouse IgG (#7074, #7076, Cell Signaling). LumiGLO reagent, 20× Peroxide (#7003, Cell Signaling) was used to visualize gel (see FIG. 36).
Samples were run on a SDS-PAGE gel and proteins were transferred onto a nitrocellulose membrane by a semi-dry transfer. Nitrocellulose was blocked with 5% skim milk in TBS with 0.5% Tween at room temperature for 1 hour and then probed with anti-p-MSK1 (Thr581) (#9595, Cell Signaling) antibody. Tubulin was used as a normalization control and was probed with Anti-Tubulin (T9026, Sigma) antibody.

Data set [12] deals with Hsp70. As to the kind of experiment: Hsp70 induction by Compound 1 in the presence of Tiron. The data set is classed as cell-based. As to conditions: Tiron (FIG. 45).
From the text: as §2

Data set [13] concerns cytochrome c and caspase 3. As to the kind of experiment: Apoptotic markers, Western blot, Ramos cells. The note with it: 100 nM. The data set is classed as cell-based. As for the experimental part:
Ramos cells were plated for 3 hours then treated with 100 nM elesclomol for the indicated times. To determine cytochrome c levels in the cytoplasm and mitochondria (a) Ramos cells were fractionated using the method detailed in (Hase et al, Journal of Biol. Chem. Vol. 277, pp. 46950-58, 2002) and western blots were probed with Cytochrome C primary antibody (BD Pharmingen, clone 7H8.2; C12). All Western blots were probed with secondary antibodies conjugated to HRP (Cell Signaling) and visualized using Lumiglo (Cell Signaling) peroxide reagents. Images were captured from the Kodak Image Station 440. For Caspase 3 analysis (b), whole cell lysates were isolated using 1× cell lysis buffer (Cell Signaling, Danvers, Mass.) plus protease inhibitors (Calbiochem, San Diego, Calif.). 30 ug of protein was run on a 4-12% Nupage gel (Invitrogen) and immunoblotted using standard procedures. The blots were probed with Caspase 3 antibody (9662) and cleaved Caspase 3 primary antibodies (9661) both from Cell Signaling.

Where [14] appears, read: RECIST, Efficacy Sample, patients (percent).

In the case of `CC(=O)N[C@@H](CS)C(=O)O` [NAC, N-acetyl-cysteine, reference compound], the “inhibition of Compound 1-induced early apoptotic signaling” value in data set [1] was “completed inhibited early apoptotic signaling”. The “inhibition of Hsp70 induction by Compound 1” value in data set [2] (5 mM NAC) is recorded as “complete inhibition in Hsp70 induction; also recorded: completely inhibited”. Also, the early apoptotic cells in data set [3] (NAC 5 mM alone) was 11%. In addition, the “relative levels of apoptotic cells” value in data set [3] is listed as “little or no effect”. The “block of Compound 1-induced cell death” value in data set [4] is recorded as “completely blocked the ability of Compound 1 to induce cell death”. For the same compound, in [5] (1.0 mM or 10 mM NAC 1 hour prior to Compound 1 0.5 μM), the “block of ROS generation by Compound 1” value is “almost completely blocked the generation of ROS by Compound 1”. Besides, the “effect of NAC on genes induced by Compound 1” value in data set [6] was “inhibited the genes most robustly induced by Compound 1”.

On to `CC(=O)O[C@H]1C(=O)[C@@]2(C)[C@H]([C@H](OC(=O)c3ccccc3)[C@]3(O)C[C@H](OC(=O)[C@H](O)[C@@H](NC(=O)c4ccccc4)c4ccccc4)C(C)=C1C3(C)C)[C@]1(OC(C)=O)CO[C@@H]1C[C@@H]2O` [Paclitaxel, paclitaxel], for which the “CR + PR (95% CI)” value in [7] (RECIST, Efficacy Sample) is 3.7% (0.1%,19.0%). Besides, in [7] (setting [14]), the “Best Overall Response: Complete Response (CR)” value was determined as 0, the “Best Overall Response: Partial Response (PR)” value is listed as 1 (3.7%) and the “Best Overall Response: Progressive Disease (PD)” value was 16 (59.3%). For the same compound, in data set [7] (Table 5), the “number of patients with partial response” value is reported as 1 patient, the “patients with progressive disease” value is 59.3% and the “patients with stable disease” value worked out at 37%. Moreover, in data set [8], the dose limiting toxicities entry is recorded as “dose limiting toxicities occurred in a single patient in each of the top three dose levels”.

For the compound `C[S+]([O-])c1ccc(-c2nc(-c3ccncc3)c(-c3ccc(F)cc3)[nH]2)cc1` (stereo not drawn) [SB203580, reference compound], in data set [2] (p38 inhibitor 20 uM), the “inhibition of Hsp70 induction by Compound 1” value is “robust decrease in Hsp70 induction”. Moreover, in data set [3], the “relative levels of apoptotic cells” value is “little or no effect”. Also, the “block of Compound 1 induced phosphorylation of MAPKAPK-2” value in data set [9] is recorded as “blocked”. In data set [10], the “effect of p38 inhibitor on apoptosis induced by Compound 1” value was “did not effect induction of apoptosis by Compound 1”. In addition, the “block of Compound 1 induced phosphorylation of MSK1” value in data set [11] is given as “blocked”.

For `O=S(=O)(O)c1cc(O)c(O)c(S(=O)(=O)O)c1` [Tiron, reference compound], the “block of ROS generation by Compound 1” value in [5] (500 mM Tiron 1 hour prior to Compound 1 0.5 μM, 24 hours) is “blocked the ability of Compound 1 to generate ROS”. For the same compound, in data set [12], the “block of induction of Hsp70 by Compound 1” value is on record as “blocks the induction of Hsp70 by Compound 1”.

Turning to `CN(NC(=O)CC(=O)NN(C)C(=S)c1ccccc1)C(=S)c1ccccc1` [elesclomol], the “time post treatment at which cytochrome c and caspase 3 start to be activated” value in [13] was 6 h. Moreover, the “accumulation of ROS” value in [5] (500 nM, time course) is listed as “induces accumulation of ROS in cells shortly after drug treatment”.
